# Columns and labels:
# LoVo cells = assay: Annexin V-FITC/PI apoptosis assay, LoVo; format: cell-based, human; details: 30 µg/mL, 48 h, Figure 3B plot
# Procedure: (§1) Translocation of phosphatidylserine (PS) residues on the cell surface is an early apoptosis indicator, detectable through flow cytometric analysis and using double staining with propidium iodide (PI) dye and fluorescein isothiocyanate (FITC)-conjugated Annexin V (Annexin V-FITC). […]
# (§2) μg/mL for 48 h. […]
# (§3) S3.2.6. Annexin-V-FITC assay. […]
# (§4) treatment with compound 3d. HCT-116 and LoVo cells were treated with vehicle (DMSO) and 3d […]
# (§5) in Annexin-V binding buffer (BioVision Research Products, USA). The cells were then stained with Annexin V-FITC and propidium iodide (PI). Using the FITC signal detector (usually FL1) for […]
# (§6) of stained cancerous cells were determined. […]
# HCT-116 cells = assay: Annexin V-FITC/PI apoptosis assay, HCT-116; format: cell-based, human; details: 30 µg/mL, 48 h
# Procedure: as §1, §2, §3, §4, §5, §6
# [1] = DPPH radical scavenging assay; details: three independent experiments; read-out: Mean IC50 (mM) for initial DPPH radicals ± SD
# [2] = test system: Bax, Bcl-2 and Casp-3 genes expression in HCT-116 cells; assay: qRT-PCR of Bax, Bcl-2 and Casp-3 gene expression, HCT-116; format: cell-based, human; details: 30 µg/mL, 48 h
# Procedure: (§7) To investigate molecular events downstream of ROS generation, we evaluated mRNA expression levels of key regulators of mitochondrial apoptosis—Bax and Bcl-2—using qRT-PCR. […] As a result, the Bax/Bcl-2 ratios were calculated to be 12.63 in LoVo cells and 8.71 in HCT-116 cells, reflecting a pronounced pro-apoptotic shift. This alteration in the Bax/Bcl-2 ratio strongly supports the activation of the mitochondrial apoptotic pathway.
# (§8) To confirm activation of the execution phase of apoptosis, Casp-3 mRNA levels were evaluated by qRT-PCR.
# (§9) The expression levels of these genes were determined using a quantitative real-time PCR technique. […]
# (§10) S3.2.9. Quantification of the Expression Levels of Bax, Bcl-2 and Caspase-3 Genes
# (§11) Human colon cancer cell lines (HCT-116 and LoVo) were cultured for 24 h in a 25 mL flask at
# (§12) a density of 1 * 10^6 cells/flask as described in section S3.2.4. Cells were treated with 30 µg/mL
# (§13) of compound 3d in 2 mL of fresh medium containing 1% FBS, or with 0.25 % DMSO as a
# (§14) negative control, for 48 h. Afterwards, cells were washed with ice-cold phosphate-buffered
# (§15) saline (PBS) and adherent cells were detached using trypsin solution.
# (§16) Table S7 lists primers amplifying 100-200 bp of Bax, Bcl-2 and Caspase-3 genes. These primers
# (§17) were designed using primer blast software (https://www.ncbi.nlm.nih.gov/tools/primer-
# (§18) Table S7. Primer sequences for Bax, Bcl-2, Caspase-3, and GAPDH (control)
# (§19) Gene Primer sequence (5’ to 3’)
# (§20) Bcl-2 F 5’-[…] -3’,
# (§21) Caspase 3 F 5’- […]-3’,
# (§22) GAPDH F 5’- […]-3’
# (§23) • Reverse-Transcription PCR (RT-PCR)
# (§24) The total RNA was extracted from untreated and treated cells using the RNeasy Mini Kit
# (§25) (Qiagen, DE). A Nanodrop 8000 spectrophotometer (Thermo Fisher Scientific, USA) was
# (§26) used to check the RNA purity and quality. The Hyperscript Kit (GeneAll, KR) and random
# (§27) hexamers (GeneAll, KR) were used as described in the manufacturer’s protocol to reverse-
# (§28) transcript 1µg of RNA from each sample into cDNA.
# (§29) • Quantitative real-time PCR
# (§30) The mRNA expression of Bax, Bcl-2, and Caspase-3 were measured using QuantStudio
# (§31) 7Flex Detection System (Applied Biosystems, USA). The iScript One-Step RT-PCR Kit with
# (§32) SYBR Green (Cat no: 170-8892; Bio-Rad, CA, USA) was used to carry out the reactions for
# (§33) the synthesis of cDNA. Each cDNA sample (5 µl) was added in a 20 µL PCR mixture
# [3] = test system: Bax, Bcl-2 and Casp-3 genes expression in LoVo cells; assay: qRT-PCR of Bax, Bcl-2 and Casp-3 gene expression, LoVo; format: cell-based, human; details: 30 µg/mL, 48 h
# Procedure: as §7, §8, §9, §10, §11, §12, §13, §14, §15, §16, §17, §18, §19, §20, §21, §22, §23, §24, §25, §26, §27, §28, §29, §30, §31, §32, §33
# [4] = relative to untreated controls, normalized to GAPDH
structure (smiles),measurement,setting,value
"COc1cc(/C=N/c2ncnc3sc4c(c23)CCCC4)cc(OC)c1OC [Compound 3d, (E)-N-(5,6,7,8-Tetrahydrobenzo[4,5]thieno[2,3-d]pyrimidin-4-yl)-1-(3,4,5-trimethoxyphenyl)methanimine]","Necrotic population (Annexin-V−/PI+), LoVo",LoVo cells,4.14%
same,"Late apoptotic cells (both Annexin-V and PI positive), LoVo",LoVo cells; control 0.09%,9.92%
same,"Early apoptotic cells (Annexin V-FITC positive and PI negative), LoVo",LoVo cells; control 0.44%,17.12%
same,"Necrotic population (Annexin-V−/PI+), HCT-116",HCT-116 cells; Figure 3D plot,1.53%
same,"Late apoptotic cells (both Annexin-V and PI positive), HCT-116","HCT-116 cells; Figure 3D plot, control 0.15%",3.63%
same,"Early apoptotic cells (Annexin V-FITC positive and PI negative), HCT-116","HCT-116 cells; Figure 3D plot, control 0.46%",19.02%
same,"% of cell population, Mean necrosis (HCT-116)",HCT-116 cells; mean of two independent experiments (Figure 3E),1.63%
same,"% of cell population, Mean total death (HCT-116)","HCT-116 cells; mean of two independent experiments (Figure 3E), text calls it total apoptosis",25.11%
same,IC50,[1],0.164 ± 0.008 mM
same,"Bax/Bcl-2 ratio, HCT-116 cells",[2],8.71
same,"Bax mRNA expression, fold of control (HCT-116)",[2]; [4],3.57 ± 0.18 fold
same,"Bcl-2 mRNA expression, fold of control (HCT-116)",[2]; [4],0.41 ± 0.04 fold
same,"Casp-3 mRNA expression, fold of control (HCT-116)",[2]; [4],4.50 ± 0.40 fold
same,"Bax/Bcl-2 ratio, LoVo cells",[3],12.63
same,"Bax mRNA expression, fold of control (LoVo)",[3]; [4],3.03 ± 0.41 fold
same,"Bcl-2 mRNA expression, fold of control (LoVo)",[3]; [4],0.24 ± 0.03 fold
same,"Casp-3 mRNA expression, fold of control (LoVo)",[3]; [4],5.35 ± 0.33 fold

# Reference: article PMC12196476, “New Nitrogen-, Oxygen-, and Sulfur-Containing Heterocyclic Compounds as Anti-Colon Cancer Agents: Synthesis, Multitargeted Evaluations, Molecular Docking Simulations and ADMET Predictions” (Pharmaceuticals, 2025)
